The experiment has as its target T1, HCV RdRp NS5B d21BK (NS5B from the BK strain, genotype 1b) (Hepatitis C virus genotype 1b, UniProt P26663).
T1 construct: NS5B from the BK strain (genotype 1b) is expressed in E coli as a protein in which the 21 C-terminal amino acids are replaced; made in house; host or cells: E. coli
Briefly: Hepatitis C polymerase inhibition assay, radioactive nucleotide incorporation with filter capture. The experiment is classed as biochemical. An excerpt:
The ability of the compounds of formula (I) to inhibit Hepatitis C Polymerase was established by the following experimental procedure.
NS5B from the BK strain (genotype 1b) is expressed in E coli as a protein in which the 21 C-terminal amino acids are replaced with a short linker and a hexahistidine tag ([…]). The purified protein is mixed with radioactive nucleotides and allowed to replicate a heteropolymeric RNA substrate, primed by an endogenous short hairpin, resulting in an approximately 760 nt product. The radioactive product is captured on a filter and quantitated after removal of the unincorporated nucleotides.
(1) Compounds 10 μl at 10 μg/ml in 15% dimethylsulfoxide (DMSO)
When starting from 100 μg/ml compound stock in 1% DMSO, 5 μl 30% DMSO is dispensed per well. Next, 5 μl compound (100 μg/ml) is dispensed per well.
When starting from 50 μg/ml compound stock in 15% DMSO, 10 μl compound is added per well.
20 μl enzyme mix is added into each well of the assay plate. The compound and enzyme are incubated at room temperature for 15 minutes.
(3) Template mix (prepared in advance)
A tube of RNA (5 μg/tube stored in 75% ethanol and 0.3 M sodium acetate) is microcentrifuged for 20 minutes at 4° C. (one tube supplies 1-1.5 plates). Ethanol is removed from the tube by gently inverting the tube. The RNA is vacuum dried and re-suspended in 1 ml of DEPC water in a tightly capped tube. To dissolve RNA, the RNA solution is incubated on ice for ˜60 minutes and gently vortexed. It is spun briefly to ensure all RNA solution at the bottom of the tube before opening cap. The RNA solution is then gently transferred into a 5 ml or larger tube. Another 3 ml of DEPC water is added to obtain a total of 4 ml of volume.
The following volumes of reagents are added:
20 μl template mix per reaction is added (i.e. 20 ng of pOF per reaction or ˜3 nM)
(4) The reaction is incubated at room temperature (22-25° C.) for 2 hours.
(5) The reaction is quenched by adding 50 μl of 170 mM EDTA.
Final concentration of EDTA is 85 mM.
(6) The filters of Millipore multiscreen assay plate is pre-wet by adding 200 μl of 0.5 M sodium phosphate buffer, pH 7.0 into each well. This stands at room temperature for 2-3 minutes.
(7) The multiscreen filter plate is placed onto a Millipore Manifold under vacuum to allow buffer to flow through. After the vacuum is turned off, 80 μl of the reaction product is transferred into each well of the filter plate. This stands for 2-3 minutes prior to turning on the vacuum again to filter the reaction product.
(8) The vacuum is then removed. 200 μl of 0.5 M sodium phosphate buffer is added, pH 7.0, into each well. The vacuum is then turned on.
Step (8) is repeated three more times.
(9) Next the polypropylene bottom is removed, and the filter is spot dried with a paper towel. The filter plate is air-dried on a bench for 1 hour before adding 40 μl Super Mix scintillant. The top of the plate is sealed with a tape and the plate is placed into a Packard carrier or micro-beta carrier.
(10) The plate is counted using a Packard Topcount or micro-beta counter. Count (for example using Program 10) for ^33P in Top count or ^33P program in micro-beta.
The percent inhibition is calculated after background subtraction as a percent reduction of activity relative to the positive control (average value of the plate excluding the negative controls). For the primary screen hits were chosen as showing >75% inhibition.
See, Ferrari et al. 1999. J. Virology 73:1649-1654: “Characterization of soluble Hepatitis C virus RNA-dependent RNA polymerase expressed in E. coli and Takamizawa et al 1991” and J. Virology 65:1105-1113: “Structure and characterization of Hepatitis C virus genome isolated from human carriers,” both reference are hereby incorporated by reference.
T1 sequence (P26663 2420-2989): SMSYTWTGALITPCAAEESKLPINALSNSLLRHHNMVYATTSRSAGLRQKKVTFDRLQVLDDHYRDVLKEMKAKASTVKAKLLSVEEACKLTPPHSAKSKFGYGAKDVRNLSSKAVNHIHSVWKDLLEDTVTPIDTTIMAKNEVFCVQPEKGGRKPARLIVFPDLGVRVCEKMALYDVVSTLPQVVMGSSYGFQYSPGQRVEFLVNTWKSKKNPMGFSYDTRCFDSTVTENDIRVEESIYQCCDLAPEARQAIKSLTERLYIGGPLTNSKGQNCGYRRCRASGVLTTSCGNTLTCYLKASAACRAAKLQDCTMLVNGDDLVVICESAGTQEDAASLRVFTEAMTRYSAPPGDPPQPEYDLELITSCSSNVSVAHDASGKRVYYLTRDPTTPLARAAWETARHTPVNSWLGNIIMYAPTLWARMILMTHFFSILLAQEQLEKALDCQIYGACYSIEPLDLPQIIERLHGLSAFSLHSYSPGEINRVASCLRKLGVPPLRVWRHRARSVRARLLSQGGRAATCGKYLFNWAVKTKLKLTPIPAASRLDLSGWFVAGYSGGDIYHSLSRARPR
With `CCCC1(CC(=O)O)CCCc2c1[nH]c1c(F)ccc(C#N)c21` (centres unmarked) [Example 32, (5-Cyano-8-fluoro-1-propyl-2,3,4,9-tetrahydro-1H-carbazol-1-yl)-acetic acid], the IC50 was determined as 2 µM.
In the case of `CCCC1(CC(=O)O)CCCc2c1[nH]c1c(C(N)=O)ccc(C#N)c21` (centres unmarked) [Example 33, (8-Carbamoyl-5-cyano-1-propyl-2,3,4,9-tetrahydro-1H-carbazol-1-yl)-acetic acid], the IC50 was determined as 5.9 µM.
Take `C=CCC1(CC(=O)O)CCCc2c1[nH]c1c(C#N)ccc(C#N)c21` (centres unmarked) [Example 34, (1-Allyl-5,8-dicyano-2,3,4,9-tetrahydro-1H-carbazol-1-yl)-acetic acid]: the half-maximal inhibitory concentration (IC50) is 3.4 µM.
The figure for `CCCC1(CC(=O)O)CCCc2c1[nH]c1c(C#N)ccc(C#N)c21` (centres unmarked) [Example 35, (5,8-Dicyano-1-propyl-2,3,4,9-tetrahydro-1H-carbazol-1-yl)-acetic acid] is 3.4 µM.
Next, `CCCC1(CC(=O)O)CCCc2c1[nH]c1cccc(C#N)c21` (centres unmarked) [Example 36, (5-Cyano-1-propyl-2,3,4,9-tetrahydro-1H-carbazol-1-yl)-acetic acid]: 9.5 µM.

As usually defined, the IC50 is the midpoint of a concentration-inhibition curve.

(Values after patent US7250441B2, “Carbazole and cyclopentaindole derivatives to treat infection with Hepatitis C virus” (priority 2004, dated 2007).)
